# Measured values reported in article PMC12396409, “Screening and hit evaluation of a microbial metabolite library against the pathogenic Plasmodium falciparum and Toxoplasma gondii parasites” (International Journal for Parasitology: Drugs and Drug …, 2025).
# Where two headings read alike, the source gives them in different places. Where a SMILES comes first, the peptide text is derived from it. [ ]: non-standard residue; d: D form. Aoe = N[C@@H](CCCCCC(=O)[C@@H]1CO1)C(=O)O; dNMeL = CN[C@H](CC(C)C)C(=O)O; Hiv = CC(C)[C@H](O)C(=O)O
# Assays:
# [1] = system: P. falciparum 3D7 parasites; test: P. falciparum growth inhibition assay, 1-cycle (72 h treatment), SYBR DNA staining (library screen at 2 μg/mL and dose-response); assay type: cell-based, Plasmodium falciparum; conditions: for activity at 2 µg/mL: Plasmodium falciparum, 3D7, 72 h
# [2] = system: P. falciparum 3D7 parasites; test: P. falciparum growth inhibition assay, 2-cycle (120 h treatment), delayed-death screen and dose-response; assay type: cell-based, Plasmodium falciparum; conditions: for activity at 2 µg/mL: Plasmodium falciparum, 3D7, 120 h
# [3] = system: T. gondii RH strain (RH-Tub-eYFP) tachyzoites; test: microbe, parasite or virus in culture; assay type: cell-based, Toxoplasma gondii; conditions: 72 h, 72 h; for percent parasite growth at 2 µg/mL: Toxoplasma gondii
# [4] = library screen at 2 μg/mL, 72 h, % growth, replicate 1
# [5] = library screen at 2 μg/mL, 72 h, % growth, replicate 2
# [6] = library screen at 2 μg/mL, 120 h, % growth, replicate 1
# [7] = library screen at 2 μg/mL, 120 h, % growth, replicate 2
# [8] = library screen at 2 μg/mL, % growth, replicate 1
# [9] = library screen at 2 μg/mL, % growth, replicate 2
structure (smiles),measurement,setting,value
C=CC(C)(C)[C@@]12C[C@H]3C(=O)N4[C@@H](C[C@@]5(C(C)(C)C=C)c6ccccc6N[C@@H]45)C(=O)N3[C@@H]1Nc1ccccc12 [Amauromine],activity at 2 µg/mL,"[1]; library screen at 2 μg/mL, 72 h, % growth, replicate 1, read-out: Pf_72h_%Growth_Rep1",3.52%
same,activity at 2 µg/mL,"[1]; library screen at 2 μg/mL, 72 h, % growth, replicate 2, read-out: Pf_72h_%Growth_Rep2",3.82%
same,activity at 2 µg/mL,"[2]; library screen at 2 μg/mL, 120 h, % growth, replicate 1, read-out: Pf_120h_%Growth_Rep1",7.96%
same,activity at 2 µg/mL,"[2]; library screen at 2 μg/mL, 120 h, % growth, replicate 2, read-out: Pf_120h_%Growth_Rep2",0.67%
same,percent parasite growth at 2 µg/mL,"[3]; library screen at 2 μg/mL, % growth, replicate 1, read-out: Tg_72h_%Growth_Rep1",139%
same,percent parasite growth at 2 µg/mL,"[3]; library screen at 2 μg/mL, % growth, replicate 2, read-out: Tg_72h_%Growth_Rep2",104%
CCCCCCCCCC[C@@H](O)C[C@]1(O)O[C@H](CC(O)C(O)C(O)C(O)C(O)CC(O)CC(O)CC(O)CC(O)C(C)C(O)C(C)C(O)CC(O)C(C)C(O)C(O)C[C@H](C)C[C@H](C)/C=C(C)/C(O)=C2\C(=O)CN(C)C2=O)[C@@H](O)[C@H](O)[C@@H]1O (stereo partly drawn) [Blasticidin A],Pf_72h_%Growth_Rep1,"[1]; P. falciparum, 72 h, screen at 2 μg/mL, replicate 1",84.79%
same,Pf_72h_%Growth_Rep2,"[1]; P. falciparum, 72 h, screen at 2 μg/mL, replicate 2",87.65%
same,Pf_120h_%Growth_Rep1,"[2]; P. falciparum, 120 h, screen at 2 μg/mL, replicate 1",135.50%
same,Pf_120h_%Growth_Rep2,"[2]; P. falciparum, 120 h, screen at 2 μg/mL, replicate 2",87.28%
same,Tg_72h_%Growth_Rep1,"[3]; T. gondii, screen at 2 μg/mL, replicate 1",83.39%
same,Tg_72h_%Growth_Rep2,"[3]; T. gondii, screen at 2 μg/mL, replicate 2",93.60%
"CCCN1C[C@H](C)[C@@H](O)[C@](C)(O)[C@@H](CC)OC(=O)[C@H](C)[C@@H](O[C@H]2C[C@@](C)(OC)[C@@H](O)[C@H](C)O2)[C@H](C)[C@@H](O[C@@H]2O[C@H](C)C[C@H](N(C)C)[C@H]2O)[C@](C)(O)C[C@H]1C [Gamithromycin, reference compound]",1) Growth (%) at 72 h,"[1]; P. falciparum, 2 μg/mL, 72 h",58.53%
same,Pf_72h_%Growth_Rep1,[1]; [4],42.98%
same,Pf_72h_%Growth_Rep2,[1]; [5],74.08%
same,2) Growth (%) at 120 h,"[2]; P. falciparum, 2 μg/mL, 120 h",15.46%
same,3) Fold change (72 h/120 h),"[2]; P. falciparum, growth at 72 h / growth at 120 h, 2 μg/mL",3.8
same,Pf_120h_%Growth_Rep1,[2]; [6],12.20%
same,Pf_120h_%Growth_Rep2,[2]; [7],18.72%
same,Tg_72h_%Growth_Rep1,[3]; [8],33.80%
same,Tg_72h_%Growth_Rep2,[3]; [9],38.81%
COc1ccc2[nH]c3c(C)c4ccncc4c(C)c3c2c1 [BIA-M1952],Pf_72h_%Growth_Rep1,"[1]; P. falciparum 3D7, 72 h, parasite screen at 2 μg/mL, % growth, replicate 1",9.89%
same,Pf_72h_%Growth_Rep2,"[1]; P. falciparum 3D7, 72 h, parasite screen at 2 μg/mL, % growth, replicate 2",-0.96%
same,Pf_120h_%Growth_Rep2,[2],-1.49%
same,Pf_120h_%Growth_Rep1,"[2]; P. falciparum 3D7, 120 h, parasite screen at 2 μg/mL, % growth, replicate 1",10.32%
same,Tg_72h_%Growth_Rep1,"[3]; T. gondii, parasite screen at 2 μg/mL, % growth, replicate 1",3.28%
same,Tg_72h_%Growth_Rep2,"[3]; T. gondii, parasite screen at 2 μg/mL, % growth, replicate 2",1.49%
"C[C@@H]1NC(=O)[C@H](CCCCCC(=O)[C@@H]2CO2)NC(=O)[C@H]2CCCN2C(=O)[C@H](Cc2ccccc2)NC1=O [Alaninechlamydocin, 1-] (cyclo(AF[dP][Aoe]))",Pf_72h_%Growth_Rep1,[1]; [4],2.42%
same,Pf_72h_%Growth_Rep2,[1]; [5],0.98%
same,Pf_120h_%Growth_Rep1,[2]; [6],12.83%
same,Pf_120h_%Growth_Rep2,[2]; [7],-6.34%
same,Tg_72h_%Growth_Rep1,[3]; [8],2.60%
same,Tg_72h_%Growth_Rep2,[3]; [9],2.26%
CC(C)C[C@@H]1NC(=O)[C@H](C(C)C)NC(=O)[C@H](C(C)C)OC(=O)[C@@H](CC(C)C)N(C)C(=O)[C@@H](C(C)C)NC(=O)[C@H](C(C)C)OC1=O [Sporidesmolide I] (cyclo([Hiv]VL[Hiv][dV][dNMeL])),Pf_72h_%Growth_Rep1,"[1]; P. falciparum, 72 h, parasite screen 2 μg/mL, % growth, replicate 1",86.99%
same,Pf_72h_%Growth_Rep2,"[1]; P. falciparum, 72 h, parasite screen 2 μg/mL, % growth, replicate 2",89.18%
same,Pf_120h_%Growth_Rep1,"[2]; P. falciparum, 120 h, parasite screen 2 μg/mL, % growth, replicate 1",103.89%
same,Pf_120h_%Growth_Rep2,"[2]; P. falciparum, 120 h, parasite screen 2 μg/mL, % growth, replicate 2",100.78%
same,Tg_72h_%Growth_Rep1,"[3]; T. gondii, parasite screen 2 μg/mL, % growth, replicate 1",147.37%
same,Tg_72h_%Growth_Rep2,"[3]; T. gondii, parasite screen 2 μg/mL, % growth, replicate 2",92.68%
CCCC(O)C(O)C1CC(OC)=CC(=O)O1 (stereo not drawn) [BIA-H1068],Pf_72h_%Growth_Rep1,"[1]; P. falciparum 3D7, 72 h, library screen at 2 μg/mL, % growth, replicate 1",88.88%
same,Pf_72h_%Growth_Rep2,"[1]; P. falciparum 3D7, 72 h, library screen at 2 μg/mL, % growth, replicate 2",77.83%
same,Pf_120h_%Growth_Rep1,"[2]; P. falciparum 3D7, 120 h, library screen at 2 μg/mL, % growth, replicate 1",95.79%
same,Pf_120h_%Growth_Rep2,"[2]; P. falciparum 3D7, 120 h, library screen at 2 μg/mL, % growth, replicate 2",147.07%
same,Tg_72h_%Growth_Rep1,"[3]; T. gondii RH, library screen at 2 μg/mL, % growth, replicate 1",107.81%
same,Tg_72h_%Growth_Rep2,"[3]; T. gondii RH, library screen at 2 μg/mL, % growth, replicate 2",92.55%
